The nature of data set [1]: Solubility in aqueous solution. The class given is physicochemical. From the text:
In an embodiment prodrugs of the present invention are suitable for oral administration. The skilled person understands that the pH of the gastrointestinal tract changes along its length. For example, the stomach has a pH of around pH 1.5 and the GI tract after the stomach has a pH of around 5 to 7.5. For more detail see, for example, Measurement of gastrointestinal pH profiles in normal ambulant human subjects, Gut. 1988 August; 29(8): 1035-1041. Improved solubility is expected to result in improved absorption, and therefore improved oral bioavailability. Thus improved solubility at any pH value between around pH 1.5 to 8 is expected to improve oral bioavailability. Compounds of the invention were assessed for solubility in aqueous solutions having a pH of from 2 to 10. In an embodiment prodrugs of the invention have a solubility of >0.5 mg/mL in an aqueous solution having a pH of from 2 to 8. In an embodiment prodrugs have a solubility of >5.0 mg/mL, or >10.0 mg/mL, >100.0 mg/mL, or >200.0 mg/mL. In an embodiment the prodrugs have the aforementioned aqueous solubility at a pH within the range of from 4 to 8, or from 6 to 8.
In an embodiment prodrugs of the invention are administered intravenously. High prodrug solubility is advantageous in order to reduce the volume of solution administered to the patient, and to reduce the risk of damage to the circulatory system. Solubility of >10 mg/mL is preferred. Yet more preferred is solubility of >30 mg/mL or >100.0 mg/mL. Yet more preferred is solubility of >200.0 mg/mL. The solubility is measured in an aqueous solution having a pH of from 2 to 10, which pH range is advantageous for intravenous prodrug delivery. See, for example, A guide on intravenous drug compatibilities based on their pH, Nasser S C et al./Pharmacie Globale (IJCP) 2010, 5 (01)). In an embodiment the prodrugs of the claimed invention have solubility of >10 mg/mL in an aqueous solution having a pH of from 2 to 10.

The next data set has as its target T1, hERG K+ channel (Homo sapiens, UniProt Q12809).
T1 construct: a Chinese Hamster Lung cell line stably expressing the full length hERG channel; expressed in transfected cells; host or cells: Chinese Hamster Lung cell line
Put plainly: hERG assay, IonWorks patch clamp electrophysiology. The settings on record: human, pH 7.3; 11 uM; Chinese Hamster Lung cell line stably expressing hERG. In kind it is cell-based. How it is done:
(§1) Compounds of the invention were tested for inhibition of the human ether a go-go related gene (hERG) K^+ channel using IonWorks patch clamp electrophysiology. 8 Point concentration-response curves were generated on two occasions using 3-fold serial dilutions from the maximum assay concentration (33 uM). Electrophysiological recordings were made from a Chinese Hamster Lung cell line stably expressing the full length hERG channel. Single cell ion currents were measured in the perforated patch clamp configuration (100 ug/mL amphoterocin) at room temperature using an IonWorks Quattro instrument. The internal solution contained 140 mM KCl, 1 mM MgCl2, 1 mM EGTA and 20 mM HEPES and was buffered to pH 7.3. The external solution contained 138 mM NaCl, 2.7 mM KCl, 0.9 mM CaCl2, 0.5 mM MgCl2, 8 mM Na2HPO4 and 1.5 mM KH2PO4, and was buffered to pH 7.3. Cells were clamped at a holding potential of […] for 30 s and then stepped to +40 mV for is. This was followed by a hyperpolarising step of 1 s to […] to evoke the hERG tail current. This sequence was repeated 5 times at a frequency of 0.25 Hz. Currents were measured from the tail step at the 5th pulse, and referenced to the holding current. Compounds were incubated for 6-7 min prior to a second measurement of the hERG signal using an identical pulse train. […] A control compound (quinidine) was used.
Background: hERG is a cardiac potassium channel; its block is linked to QT prolongation.

Data set [2] concerns the target T2, human ether a go-go related gene (hERG) K+ channel (Homo sapiens, UniProt Q12809).
T2 construct: a Chinese Hamster Lung cell line stably expressing the full length hERG channel; expressed in transfected cells; host or cells: Chinese Hamster Lung cell line
Nature of the data set: hERG assay, IonWorks patch clamp electrophysiology. The settings on record: Chinese Hamster Lung cell line stably expressing hERG; maximum assay concentration 33 uM. The class given is cell-based. The procedure: as §1

For data set [3] the following is noted: cited from earlier work.
The conditions of data set [4]: over a range of pH values including pH of 7.4; cited from earlier work.
For data set [5] the following is noted: rat brain; cited from earlier work.
For data set [6] the following is noted: human brain; cited from earlier work.
Data set [7] relates to high K+ evoked CSD. The settings on record: cats; cited from earlier work.
Data set [8] relates to high K+ evoked CSD. To be noted: rats; cited from earlier work.

These results are taken from US20160318891A1, “TONABERSAT PRODRUGS” (PROXIMAGEN LIMITED, priority 2013, published 2016).

Structures are written as SMILES. ≈ marks a conversion by molar mass, not a printed value. Where two headings read alike, the source gives them in different places.

T2 sequence (Q12809 whole entry): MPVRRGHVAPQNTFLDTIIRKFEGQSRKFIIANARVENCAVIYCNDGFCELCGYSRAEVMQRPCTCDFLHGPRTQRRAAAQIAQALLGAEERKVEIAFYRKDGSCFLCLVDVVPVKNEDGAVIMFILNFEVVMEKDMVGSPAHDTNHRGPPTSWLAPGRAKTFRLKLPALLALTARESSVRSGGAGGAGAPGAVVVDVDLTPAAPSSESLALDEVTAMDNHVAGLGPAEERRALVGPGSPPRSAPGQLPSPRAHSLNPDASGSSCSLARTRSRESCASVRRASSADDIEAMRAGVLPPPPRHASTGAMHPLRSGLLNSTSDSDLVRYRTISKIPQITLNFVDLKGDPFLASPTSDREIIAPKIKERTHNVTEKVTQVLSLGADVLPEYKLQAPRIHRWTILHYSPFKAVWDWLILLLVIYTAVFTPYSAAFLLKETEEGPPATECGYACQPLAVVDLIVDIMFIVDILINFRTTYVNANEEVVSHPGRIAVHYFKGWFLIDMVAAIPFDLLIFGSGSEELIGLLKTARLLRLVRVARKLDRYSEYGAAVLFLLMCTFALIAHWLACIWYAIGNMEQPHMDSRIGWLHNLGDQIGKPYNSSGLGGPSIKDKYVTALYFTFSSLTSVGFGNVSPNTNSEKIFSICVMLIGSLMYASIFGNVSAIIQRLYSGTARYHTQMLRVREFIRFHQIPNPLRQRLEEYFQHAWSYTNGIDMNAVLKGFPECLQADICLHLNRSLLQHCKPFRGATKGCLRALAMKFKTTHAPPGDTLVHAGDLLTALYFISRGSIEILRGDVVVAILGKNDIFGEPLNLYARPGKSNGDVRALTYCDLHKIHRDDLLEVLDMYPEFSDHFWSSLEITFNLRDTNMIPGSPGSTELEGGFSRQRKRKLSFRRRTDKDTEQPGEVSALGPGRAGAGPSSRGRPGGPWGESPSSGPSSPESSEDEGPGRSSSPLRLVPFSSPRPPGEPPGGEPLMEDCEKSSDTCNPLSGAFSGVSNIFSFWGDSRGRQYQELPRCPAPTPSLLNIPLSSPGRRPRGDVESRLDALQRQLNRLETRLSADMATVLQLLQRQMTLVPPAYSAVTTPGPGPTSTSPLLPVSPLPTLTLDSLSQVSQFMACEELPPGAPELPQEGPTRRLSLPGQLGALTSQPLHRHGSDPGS
T1 sequence (Q12809 whole entry): as above

`CC(=O)c1ccc2c(c1)[C@H](NC(=O)c1ccc(F)c(Cl)c1)[C@H](OC(=O)[C@@H](N)CC(=O)O)C(C)(C)O2` [Example 13, (3S)-4-{[(3S,4S)-6-Acetyl-4-[(3-chloro-4-fluorobenzene)amido]-2,2-dimethyl-3,4-dihydro-2H-1-benzopyran-3-yl]oxy}-3-amino-4-oxobutanoic acid; trifluoroacetic acid] had a solubility in data set [1] (pH 6.5, aqueous buffer) above 2000 µg/mL. Moreover, the inhibition at 11 µM against hERG K+ channel is 19%. Take `CC(=O)c1ccc2c(c1)[C@H](NC(=O)c1ccc(F)c(Cl)c1)[C@H](OC(=O)[C@@H](N)CCCNC(=N)N)C(C)(C)O2.Cl.Cl` [Example 12, (3S,4S)-6-Acetyl-4-[(3-chloro-4-fluorobenzene)amido]-2,2-dimethyl-3,4-dihydro-2H-1-benzopyran-3-yl (2S)-2-amino-5-carbamimidamidopentanoate dihydrochloride]: in data set [1] (pH 4.4, aqueous buffer), the solubility is above 10000 µg/mL. In addition, at 11 µM the inhibition against hERG K+ channel was 9%.

The molecule `CC(=O)c1ccc2c(c1)[C@H](NC(=O)c1ccc(F)c(Cl)c1)[C@H](OC(=O)C(C)(C)N)C(C)(C)O2.Cl` [Example 6, (3S,4S)-6-Acetyl-4-[(3-chloro-4-fluorobenzene)amido]-2,2-dimethyl-3,4-dihydro-2H-1-benzopyran-3-yl 2-amino-2-methylpropanoate hydrochloride] returned a solubility in data set [1] (pH 4.7, aqueous buffer) above 10000 µg/mL. In the case of `CC(=O)c1ccc2c(c1)[C@H](NC(=O)c1ccc(F)c(Cl)c1)[C@H](OC(=O)[C@@H](N)CCC(N)=O)C(C)(C)O2.Cl` [Example 11, (3S,4S)-6-Acetyl-4-[(3-chloro-4-fluorobenzene)amido]-2,2-dimethyl-3,4-dihydro-2H-1-benzopyran-3-yl (2S)-2-amino-4-carbamoylbutanoate hydrochloride], the solubility in [1] (pH 4.6, aqueous buffer) was above 2000 µg/mL. Regarding `CC(=O)c1ccc2c(c1)[C@H](NC(=O)c1ccc(F)c(Cl)c1)[C@H](OC(=O)[C@@H](N)CC(N)=O)C(C)(C)O2.Cl` [Example 10, (3S,4S)-6-Acetyl-4-[(3-chloro-4-fluorobenzene)amido]-2,2-dimethyl-3,4-dihydro-2H-1-benzopyran-3-yl (2S)-2-amino-3-carbamoylpropanoate hydrochloride], the solubility in data set [1] (pH 4.4, aqueous buffer) was below 1000 µg/mL. For the same molecule, at hERG K+ channel, 11 µM produced 18% inhibition. The like results for `CC(=O)c1ccc2c(c1)[C@H](NC(=O)c1ccc(F)c(Cl)c1)[C@H](OC(=O)[C@@H](N)CCCCN)C(C)(C)O2.Cl.Cl` [Example 9, (3S,4S)-6-Acetyl-4-[(3-chloro-4-fluorobenzene)amido]-2,2-dimethyl-3,4-dihydro-2H-1-benzopyran-3-yl (2S)-2,6-diaminohexanoate dihydrochloride] were, in that order, above 10000 µg/mL and 0%. Consider `CC(=O)c1ccc2c(c1)[C@H](NC(=O)c1ccc(F)c(Cl)c1)[C@H](OCOC[C@@H](O)CO)C(C)(C)O2` [Example 16, N-[(3S,4S)-6-Acetyl-3-{[(2S)-2,3-dihydroxypropoxy]methoxy}-2,2-dimethyl-3,4-dihydro-2H-1-benzopyran-4-yl]-3-chloro-4-fluorobenzamide], for which the solubility in data set [1] (aqueous buffer, pH 3.0) is below 1000 µg/mL. For the molecule `CC(=O)c1ccc2c(c1)[C@H](NC(=O)c1ccc(F)c(Cl)c1)[C@H](OC(=O)[C@@H]1CCCN1)C(C)(C)O2.Cl` [Example 5, (3S,4S)-6-Acetyl-4-[(3-chloro-4-fluorobenzene)amido]-2,2-dimethyl-3,4-dihydro-2H-1-benzopyran-3-yl (2S)-pyrrolidine-2-carboxylate hydrochloride], in data set [1] (pH 4.4, aqueous buffer), the solubility is above 10000 µg/mL. It took 1.4 µM to reach half-maximal inhibition in data set [2] (IC50). For the molecule `CC(=O)c1ccc2c(c1)[C@H](NC(=O)c1ccc(F)c(Cl)c1)[C@H](OC(=O)[C@H](C)N)C(C)(C)O2.Cl` [Example 1, (3S,4S)-6-Acetyl-4-[(3-chloro-4-fluorobenzene)amido]-2,2-dimethyl-3,4-dihydro-2H-1-benzopyran-3-yl (2S)-2-aminopropanoate hydrochloride], the solubility in data set [1] (aqueous buffer, pH 4.0) is above 10000 µg/mL. Besides, the IC50 in data set [2] was found to be 6 µM. In [1] (pH 4.8, aqueous buffer), `CC(=O)c1ccc2c(c1)[C@H](NC(=O)c1ccc(F)c(Cl)c1)[C@H](OC(=O)[C@H](N)C(C)C)C(C)(C)O2.Cl` [Example 3, (3S,4S)-6-Acetyl-4-[(3-chloro-4-fluorobenzene)amido]-2,2-dimethyl-3,4-dihydro-2H-1-benzopyran-3-yl (2R)-2-amino-3-methylbutanoate hydrochloride] came in with a solubility below 1000 µg/mL. The molecule also registered an IC50 in [2] of 4.3 µM. In turn, `CN[C@@H](C)C(=O)O[C@H]1[C@@H](NC(=O)c2ccc(F)c(Cl)c2)c2cc(C(C)=O)ccc2OC1(C)C.Cl` [Example 8, (3S,4S)-6-Acetyl-4-[(3-chloro-4-fluorobenzene)amido]-2,2-dimethyl-3,4-dihydro-2H-1-benzopyran-3-yl (2S)-2-(methylamino)propanoate hydrochloride] came in with a solubility in data set [1] (pH 5.1, aqueous buffer) above 10000 µg/mL.

As for `CC(=O)c1ccc2c(c1)[C@H](NC(=O)c1ccc(F)c(Cl)c1)[C@H](O)C(C)(C)O2` [Tonabersat], the “log P” value in data set [3] is reported as 3.32. Besides, the aqueous solubility in data set [4] is 25 µg/mL (≈ 63.8 µM). Besides, the “binding to unique stereo-selective site” value in data set [5] was “binds selectively and with high affinity”; in data set [6] it was “binds selectively and with high affinity”. Also, the “inhibition of high K+ evoked CSD” value with high K+ evoked CSD [7] and in the data set on high K+ evoked CSD [8] was “inhibits high K+ evoked CSD” throughout.

On to `CC(=O)c1ccc2c(c1)[C@H](NC(=O)c1ccc(F)c(Cl)c1)[C@H](OC(=O)[C@@H](N)CCC(=O)O)C(C)(C)O2` [Example 14, (4S)-5-{[(3S,4S)-6-Acetyl-4-[(3-chloro-4-fluorobenzene)amido]-2,2-dimethyl-3,4-dihydro-2H-1-benzopyran-3-yl]oxy}-4-amino-5-oxopentanoic acid; trifluoroacetic acid], for which the solubility in [1] (pH 4.6, aqueous buffer) is above 2000 µg/mL. 11 µM produced 8% inhibition on hERG K+ channel. In data set [1] (pH 4.4, aqueous buffer), `CC(=O)c1ccc2c(c1)[C@H](NC(=O)c1ccc(F)c(Cl)c1)[C@H](OC(=O)[C@@H](N)C(C)C)C(C)(C)O2.Cl` [Example 2, (3S,4S)-6-Acetyl-4-[(3-chloro-4-fluorobenzene)amido]-2,2-dimethyl-3,4-dihydro-2H-1-benzopyran-3-yl (2S)-2-amino-3-methylbutanoate hydrochloride] yielded a solubility of around 5000 µg/mL. This molecule also registered an inhibition at 11 µM against hERG K+ channel of 38%. Turning to `CC(=O)c1ccc2c(c1)[C@H](NC(=O)c1ccc(F)c(Cl)c1)[C@H](OC(=O)[C@H](N)CC(C)C)C(C)(C)O2.Cl` [Example 4, (3S,4S)-6-Acetyl-4-[(3-chloro-4-fluorobenzene)amido]-2,2-dimethyl-3,4-dihydro-2H-1-benzopyran-3-yl (2R)-2-amino-4-methylpentanoate hydrochloride], the solubility in data set [1] (pH 4.2, aqueous buffer) was above 10000 µg/mL.

What is called solubility is the concentration that dissolves in the medium under given conditions. Low values mean a poorly soluble substance, high ones a readily soluble substance. One may read the inhibition as the drop in the measured response relative to a control, in per cent. Low readings indicate a response near the control, high ones a response far below the control. As usually defined, the IC50 is the concentration that inhibits the measured activity by half. What is called log P is the decadic logarithm of the partition coefficient of the neutral form, usually between octanol and water. The term aqueous solubility denotes how much of the substance goes into solution per volume.
